Where two headings read alike, the source gives them in different places.

This is an account of results in patent US20250195530A1, “POLQ INHIBITORS” (ASTRAZENECA AB, priority 2022, published 2025).

Assay [1] has as its system DLD-1 BRCA2−/− cells. The experiment in a line: Homologous recombination synthetic lethal inhibition of proliferation, DLD-1 BRCA2-/- (Cell Titre Glo 3D). In kind it is cell-based. The note with it: for IC50: Homo sapiens. Put shortly: (§1)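 Wild-type DLD-1 serves as the control for non-specific toxicity, and BRCA2-null DLD-1 as the homologous-recombination-deficient line. Both grew with compound from 10 μM down to 0.51 nM, re-dosed after 6 days. Luminescent ATP content (CellTiter-Glo 3D) was read after 7 or 12 days, respectively, to give IC50 values.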

The subject of assay [2] is DLD-1 cells. The experiment in a line: Inhibition of proliferation, DLD-1 BRCA2 wt control (Cell Titre Glo 3D). The note with it: for IC50: Homo sapiens. Format: cell-based. The procedure, abridged:
as §1

The mark [3] stands for this setting: DLD-1, 288 h, DLD-1 BRCA2−/− cells, 12 days, read-out: POLQ PD Prolif Lumin BRCA2 −/− mean pIC50 (converted).
[4] abbreviates: DLD-1, 168 h, DLD-1 BRCA2 wt cells, 7 days, read-out: POLQ PD Prolif Lumin DLD1 mean pIC50 (converted).
Where [5] appears, read: DLD-1, DLD-1 BRCA2 −/−, mean, read-out: POLQ PD Prolif Lumin BRCA2 −/− mean pIC50 (converted).
Where [6] appears, read: DLD-1, DLD1 BRCA2 wt, mean, read-out: POLQ PD Prolif Lumin DLD1 mean pIC50 (converted).
The mark [7] stands for this setting: DLD-1, first proliferation column (c5), DLD-1 BRCA2-/-, read-out: POLQ PD Prolif Lumin (converted).
[8] abbreviates: DLD-1, second proliferation column (c6), DLD-1 BRCA2 wt control, read-out: POLQ PD Prolif Lumin (converted).
Setting [9] is: DLD-1, DLD-1 BRCA2-/- proliferation, column head only partly shown, read-out: POLQ PD Prolif Lumin (converted).
Setting [10] is: DLD-1, DLD-1 BRCA2 wt control proliferation, column head only partly shown, read-out: POLQ PD Prolif Lumin (converted).
Setting [11] is: DLD-1, DLD-1 BRCA2 −/− cells, mean, read-out: POLQ PD Prolif Lumin BRCA2 −/− mean pIC50 (converted).
The mark [12] stands for this setting: DLD-1, DLD1 BRCA2 wt cells, mean, read-out: POLQ PD Prolif Lumin DLD1 mean PIC50 (converted).

As for `CC1(Oc2ncnc3c2nc(-c2ccc(OCC(=O)NCCO)cc2Cl)n3Cc2ccccc2)CC1` [Example D28, 2-(4-(9-benzyl-6-(1-methylcyclopropoxy)-9H-purin-8-yl)-3-chlorophenoxy)-N-(2-hydroxyethyl)acetamide], the IC50 was 79.4 nM in assay [1] (setting [3]) and over 10000 nM in assay [2] (setting [4]).
As to `COc1ccc(Cl)cc1Cn1c(-c2ccc(OCCC(C)(C)C(=O)O)cc2Cl)nc2c(OC3(C)CC3)ncnc21` [Example U31, 4-(3-chloro-4-(9-(5-chloro-2-methoxybenzyl)-6-(1-methylcyclopropoxy)-9H-purin-8-yl)phenoxy)-2,2-dimethylbutanoic acid], the IC50 is 50.1 nM in assay [1] (setting [5]) and over 7940 nM in assay [2] (setting [6]).
With `C#CC1(Oc2ncnc3c2nc(-c2ccc(OCCN4CCNCC4)cc2Cl)n3Cc2ccccc2)CC1` [Example Q1, 9-benzyl-8-(2-chloro-4-(2-(piperazin-1-yl)ethoxy)phenyl)-6-(1-ethynylcyclopropoxy)-9H-purine], the IC50 in assay [1] (setting [3]) was 316 nM; in assay [2] (setting [4]), over 10000 nM.
As for `CC1(Oc2ncnc3c2nc(-c2ccc(O[C@H]4CCNC4)cc2Cl)n3Cc2ccccc2)CC1` [Example D17, (S)-9-benzyl-8-(2-chloro-4-(pyrrolidin-3-yloxy)phenyl)-6-(1-methylcyclopropoxy)-9H-purine], the IC50 was 100 nM in assay [1] (setting [3]) and 3160 nM in assay [2] (setting [4]).
Take `Cc1ccnc(Cn2c(-c3ccc(N4CCNC4=O)cc3Cl)nc3c(OC4(C)CC4)ncnc32)c1` [Example T107, 1-(3-chloro-4-(6-(1-methylcyclopropoxy)-9-((4-methylpyridin-2-yl)methyl)-9H-purin-8-yl)phenyl)imidazolidin-2-one]: the results for the IC50 in assay [1] (setting [7]) and in assay [2] (setting [8]) were 398 nM and over 10000 nM, respectively.
In the case of `CC1(Oc2ncnc3c2nc(-c2ccc(OCCOCC(=O)O)cc2Cl)n3Cc2cccc(Cl)c2)CC1` [Example 46, 2-(2-(3-Chloro-4-(9-(3-chlorobenzyl)-6-(1-methylcyclopropoxy)-9H-purin-8-yl)phenoxy)ethoxy)acetic acid], the IC50 in assay [1] (DLD-1, 288 h, DLD-1 BRCA2−/−, 12 days, Cell Titre Glo 3D, read-out: POLQ PD Prolif Lumin BRCA2 −/− Mean pIC50 (converted)) is 1260 nM; in assay [2] (DLD-1, 168 h, DLD-1 (BRCA2 wt control), 7 days, Cell Titre Glo 3D, read-out: POLQ PD Prolif Lumin DLD1 Mean pIC50 (converted)), over 10000 nM.
`Cc1ccnc(Cn2c(-c3cccc(OCCN(C)C)c3Cl)nc3c(OC4(C)CC4)ncnc32)c1` [Example T237, 2-(2-chloro-3-(6-(1-methylcyclopropoxy)-9-((4-methylpyridin-2-yl)methyl)-9H-purin-8-yl)phenoxy)-N,N-dimethylethan-1-amine]: the IC50 in assay [1] (setting [9]) was 50.1 nM; in assay [2] (setting [10]), over 10000 nM.
Regarding `Cc1ccnc(Cn2c(-c3ccc(CC(=O)NC4CC4)cc3Cl)nc3c(OC4(C)CC4)ncnc32)c1` [Example T310, 2-(3-chloro-4-(6-(1-methylcyclopropoxy)-9-((4-methylpyridin-2-yl)methyl)-9H-purin-8-yl)phenyl)-N-cyclopropylacetamide], the IC50 in assay [1] (DLD-1, first proliferation column (c5), taken as DLD-1 BRCA2-/-, read-out: POLQ PD Prolif Lumin (converted)) was 398 nM; in assay [2] (DLD-1, second proliferation column (c6), taken as DLD-1 BRCA2 wt, read-out: POLQ PD Prolif Lumin (converted)) it was over 10000 nM.
With `CNCc1ccc(-c2nc3c(OC4(C)CC4)ncnc3n2Cc2cc(C)ccn2)c(Cl)c1` [Example T68, 1-(3-chloro-4-(6-(1-methylcyclopropoxy)-9-((4-methylpyridin-2-yl)methyl)-9H-purin-8-yl)phenyl)-N-methylmethanamine], the IC50 in assay [1] (setting [11]) is 1000 nM; in assay [2] (setting [12]), over 10000 nM.
Turning to `CC1(Oc2ncnc3c2nc(-c2ccc(OC4CNC4)cc2Cl)n3Cc2cc(Cl)ccn2)CC1` [Example T50, 8-(4-(azetidin-3-yloxy)-2-chlorophenyl)-9-((4-chloropyridin-2-yl)methyl)-6-(1-methylcyclopropoxy)-9H-purine], the IC50 in assay [1] (setting [11]) is 251 nM; in assay [2] (setting [12]), 5010 nM.
As to `CC(=O)N1CCN(CCOc2cccc(-c3nc4c(OC5(C)CC5)ncnc4n3Cc3ccccc3)c2Cl)CC1` [Example D8, 1-(4-(2-(3-(9-benzyl-6-(1-methylcyclopropoxy)-9H-purin-8-yl)-2-chlorophenoxy)ethyl)piperazin-1-yl)ethan-1-one], the results for the IC50 in assay [1] (setting [3]) and in assay [2] (setting [4]) were 50.1 nM and 6310 nM, respectively.
`COc1ccnc(Cn2c(-c3ccc(OCCN4CCNCC4)cc3Cl)nc3c(OC4(C)CC4)ncnc32)c1` [Example L5, 8-(2-chloro-4-(2-(piperazin-1-yl)ethoxy)phenyl)-9-((4-methoxypyridin-2-yl)methyl)-6-(1-methylcyclopropoxy)-9H-purine]: the IC50 in assay [1] (setting [3]) was 1580 nM; in assay [2] (setting [4]), over 10000 nM.
Consider `CC1(Oc2ncnc3c2nc(-c2ccc(O[C@H]4C[C@H](C(=O)O)C4)cc2Cl)n3Cc2cccc(Cl)c2)CC1` [Example T253, (1r,3r)-3-(3-chloro-4-(9-(3-chlorobenzyl)-6-(1-methylcyclopropoxy)-9H-purin-8-yl)phenoxy)cyclobutane-1-carboxylic acid], for which the “POLQ PD Prolif Lumin” value is 6.5 in assay [1] (DLD-1 BRCA2-/- proliferation, column head only partly shown) and under 5.0 in assay [2] (DLD-1 BRCA2 wt control proliferation, column head only partly shown).
For `C[C@@H](CCOc1cccc(-c2nc3c(OC4(C)CC4)ncnc3n2Cc2cc(Cl)ccc2C#N)c1Cl)C(=O)O` [Example U87, (S)-4-(2-chloro-3-(9-(5-chloro-2-cyanobenzyl)-6-(1-methylcyclopropoxy)-9H-purin-8-yl)phenoxy)-2-methylbutanoic acid], the IC50 is 15.8 nM in assay [1] (setting [5]) and over 10000 nM in assay [2] (setting [6]).
In the case of `CC1(Oc2ncnc3c2nc(-c2ccc(OCCN4CCNCC4)cc2Cl)n3Cc2ccc(C#N)cn2)CC1` [Example T484, 6-((8-(2-chloro-4-(2-(piperazin-1-yl)ethoxy)phenyl)-6-(1-methylcyclopropoxy)-9H-purin-9-yl)methyl)nicotinonitrile], the values for the IC50 in assay [1] (setting [7]) and in assay [2] (setting [8]) were over 7940 nM and over 10000 nM, respectively.
Regarding `Cc1ccnc(Cn2c(-c3ccc(OCCN4CCNCC4)cc3Cl)nc3c(OC4(C)CC4)ncnc32)c1` [Example L2, 8-(2-chloro-4-(2-(piperazin-1-yl)ethoxy)phenyl)-6-(1-methylcyclopropoxy)-9-((4-methylpyridin-2-yl)methyl)-9H-purine], the IC50 was 398 nM in assay [1] (setting [3]) and over 10000 nM in assay [2] (setting [4]).
On to `CC1(Oc2ncnc3c2nc(-c2ccc(OCCCN4CC[C@H](O)C4)cc2Cl)n3Cc2cc(Cl)ccn2)CC1` [Example T503, (S)-1-(3-(3-chloro-4-(9-((4-chloropyridin-2-yl)methyl)-6-(1-methylcyclopropoxy)-9H-purin-8-yl)phenoxy)propyl)pyrrolidin-3-ol], for which the IC50 was 100 nM in assay [1] (setting [7]) and over 7940 nM in assay [2] (setting [8]).
Turning to `COc1ccc(C#N)cc1Cn1c(-c2ccc(OCCC(C)C(=O)O)cc2Cl)nc2c(OC3(C)CC3)ncnc21` (racemic) [Example U14, 4-(3-chloro-4-(9-(5-cyano-2-methoxybenzyl)-6-(1-methylcyclopropoxy)-9H-purin-8-yl)phenoxy)-2-methylbutanoic acid], the figures for the IC50 in assay [1] (setting [5]) and in assay [2] (setting [6]) were 398 nM and over 10000 nM, respectively.
Taken in the same sequence, the figures for `C[C@H](CCOc1ccc(-c2nc3c(OC4(C)CC4)ncnc3n2Cc2cc(Cl)ccc2C#N)c(Cl)c1)C(=O)O` [Example U81, (R)-4-(3-chloro-4-(9-(5-chloro-2-cyanobenzyl)-6-(1-methylcyclopropoxy)-9H-purin-8-yl)phenoxy)-2-methylbutanoic acid] were 20 nM and over 10000 nM.
With `CC1(Oc2ncnc3c2nc(-c2ccc(OCCNCC(=O)O)cc2Cl)n3Cc2ccccc2)CC1` [Example D29, (2-(4-(9-benzyl-6-(1-methylcyclopropoxy)-9H-purin-8-yl)-3-chlorophenoxy)ethyl)glycine], the figures for the IC50 in assay [1] (setting [3]) and in assay [2] (setting [4]) were 5010 nM and over 10000 nM, respectively.
For the compound `CC(CCOc1ccc(-c2nc3c(OC4(C)CC4)ncnc3n2Cc2ccccc2Br)c(Cl)c1)C(=O)O` (racemic) [Example T278, 4-(4-(9-(2-bromobenzyl)-6-(1-methylcyclopropoxy)-9H-purin-8-yl)-3-chlorophenoxy)-2-methylbutanoic acid], the IC50 is 316 nM in assay [1] (setting [9]) and over 10000 nM in assay [2] (setting [10]).
Turning to `CC(=O)N1CCN(CCOc2ccc(-c3nc4c(OC5(C)CC5)ncnc4n3Cc3ccccc3)c(Cl)c2)CC1` [Example D5, 1-(4-(2-(4-(9-benzyl-6-(1-methylcyclopropoxy)-9H-purin-8-yl)-3-chlorophenoxy)ethyl)piperazin-1-yl)ethan-1-one], the IC50 in assay [1] (setting [3]) was 63.1 nM; in assay [2] (setting [4]), 2510 nM.
Taken in the same sequence, the figures for `CC1(Oc2ncnc3c2nc(-c2ccc(OCCN4CCNCC4)cc2Cl)n3Cc2ccccn2)CC1` [Example E7, 8-(2-chloro-4-(2-(piperazin-1-yl)ethoxy)phenyl)-6-(1-methylcyclopropoxy)-9-(pyridin-2-ylmethyl)-9H-purine] were 1260 nM and over 10000 nM.
